# What was measured:
# Format in all cases: cell-based
# [1] = tested on: dengue virus type-2 (DENV-2); assay: Inhibition of DENV-2 attachment to host cells, baicalein added simultaneously with virus
# Procedure: (§1) In order to determine the prophylactic anti-dengue activity of baicalein, different concentrations of baicalein (6.25 μg/ml, 12.50 μg/ml, 25.0 μg/ml, and 50.0 μg/ml) were added to the Vero cell monolayers five hours before adding virus. After five hours of pre-infection treatment, the cells were washed twice with phosphate-buffered saline (PBS). Then, 200 FFU (focus-forming units) of dengue virus type-2 (DENV-2) was inoculated to the cells to produce infected cells. The infected cells were incubated at 37° C. for one hour. Then the infected cells were washed two times with PBS to eliminate the unadsorped viruses. Growth medium (the growing medium is but not limited to Eagle's minimal essential medium; EMEM) was supplemented with 2% fetal bovine serum (FBS), 1 mM non-essential amino acid solution, 1 mM L-glutamine solution, and 1.5% carboxymethyl cellulose (CMC) solution) was added to the infected cells in the microplate. The microplate was incubated at 37° C. for four days. The number of viral foci formed and the viral RNA level were determined. The prophylactic activity of baicalein against DENV-2 was measured by the decrease in the number of viral foci and reduction of viral RNA synthesis. The number of DENV-2 foci was counted using a stereomicroscope and the titer of virus was expressed as FFU. The percentage of foci reduction (RF %) compared against controls was calculated as follows: RF (%)=(C−T)×100/C, where, C is the mean of the number of foci for negative control (without baicalein) and T is the mean of the number of foci in treated wells. Reduction in the number of viral foci was further verified using quantitative RT-PCR (qRT-PCR) which determine the copy number of dengue virus specific RNA. The same procedure was repeated to Vero cells which were treated with only virus suspension without baicalein (non-treated cells) and this served as the untreated control.
# Inhibition of DENV-2 attachment to host cells was evaluated by adding different concentrations (3.12 μg/ml, 6.25 μg/ml, 12.5 μg/ml, 25.0 μg/ml, and 50.0 μg/ml) of baicalein to Vero cells simultaneously with 200 FFU DENV-2. Then, the infected Vero cells were incubated at 37° C. for one hour in the presence of the respective concentration of baicalein. Following after, the infected Vero cells were washed two times using sterile PBS. Growth medium supplemented with 2% fetal bovine serum (FBS), 1 mM non-essential amino acid solution, 1 mM L-glutamine solution, and 1.5% carboxymethyl cellulose (CMC) solution) was added to the infected cells in the microplate. […] The number of viral foci formed and the viral RNA level were determined. The amount of viral RNA synthesis was determined using quantitative real time polymerase chain reaction amplification (qRT-PCR).
# [2] = tested on: dengue virus type-2 (DENV-2); assay: Direct virucidal activity against DENV-2
# Procedure: as §1, with “The same procedure was repeated to Vero cells which were treated with only virus suspension without baicalein (non-treated cells) and this served as the untreated control.” left out
# In order to determine the direct virucidal activity of baicalein against DENV-2, DENV-2 suspension containing 200 FFU was incubated with different concentrations of baicalein (1.56 μg/ml, 3.12 μg/ml, 6.25 μg/ml, 12.50 μg/ml, 25.0 μg/ml) at 37° C. for two hours to produce a treated viral suspension. […] The number of viral foci formed and the viral RNA level were determined.
# [3] = tested on: Japanese encephalitis virus; assay: Antiviral activity on Japanese encephalitis virus replication, baicalein added post-infection; conditions: 50 μg/ml, added post-infection to Vero cells, two days, vs non-treated cells
# Procedure: In order to evaluate the antiviral activity of baicalein after virus attachment to cells, virus inoculum consisting of 200 FFU JE was added to the monolayer Vero cells and the virus was allowed to adsorp to the Vero cells for one hour at a temperature of 37° C. Unadsorped viruses were removed by rinsing the Vero cells with sterile PBS for two times. Different concentrations of baicalein (12.5 μg/ml, 25.0 μg/ml, 50.0 μg/ml and 100.0 μg/ml) were mixed with 1.5% CMC containing cell-growth medium supplemented with 2% FBS respectively before incubated at 37° C. for two days. Then, the number of viral foci was determined.
# [4] = tested on: dengue virus type-2 (DENV-2); assay: Prophylactic anti-dengue activity, pre-treatment of Vero cells (foci reduction and qRT-PCR)
# Procedure: as §1
# [5] = tested on: dengue virus type-2 (DENV-2); assay: Antiviral activity on DENV-2 replication, baicalein added post-infection
# Procedure: as §1, with “The same procedure was repeated to Vero cells which were treated with only virus suspension without baicalein (non-treated cells) and this served as the untreated control.” left out
# In order to evaluate the antiviral activity of baicalein after virus attachment to cells, virus inoculum consisting of 200 FFU DENV-2 was added to the monolayer Vero cells and the virus was allowed to adsorp to the Vero cells for one hour at a temperature of 37° C. […] Then, the number of viral foci and viral RNA level were measured.
# [6] = 12.5 μg/ml, DENV-2 suspension incubated with baicalein at 37° C. for two hours before infecting Vero cells
# [7] = 50 μg/ml, added after virus adsorption to Vero cells, four days, vs non-treated cells
smiles,measurement,setting,value
"O=c1cc(-c2ccccc2)oc2cc(O)c(O)c(O)c12 [baicalein, 5,6,7-Trihydroxyflavone]",decrease in level of DENV-2 RNA production,"[1]; 25 μg/ml, added simultaneously with DENV-2 to Vero cells, qRT-PCR, vs non-treated cells",90.3%±1.6
same,reduction in number of dengue virus foci formed,"[1]; 25 μg/ml, added simultaneously with DENV-2 to Vero cells, vs non-treated cells",76.6%
same,decrease in DENV-2 RNA level at 50 μg/ml compared with 25 μg/ml,"[1]; 50 μg/ml, added simultaneously with DENV-2",Higher decrease in RNA level was observed
same,IC50,"[1]; Dengue virus, DENV2, Vero",7.14 µg/mL
same,decrease in level of DENV-2 RNA production,[2]; [6],99.2%±0.4
same,reduction in number of dengue virus foci formed,[2]; [6],97.93%
same,IC50,"[2]; Dengue virus, DENV2, 2 h",1.55 µg/mL
same,reduction in number of Japanese encephalitis virus foci formed,[3],> 90%
same,reduction in level of dengue virus type-2 RNA production,"[4]; 50 μg/ml, Vero cells pre-treated five hours before infection, qRT-PCR, vs non-treated cells",39.5%±0.8
same,reduction in number of dengue virus foci formed,"[4]; 50 μg/ml, Vero cells pre-treated five hours before infection, vs non-treated cells",~37%
same,IC50,"[4]; Dengue virus, DENV2, Vero, read-out: IC50 in pretreatment of cells",109 µg/mL
same,decrease in level of DENV-2 RNA production,[5]; [7],84.9%±2.15
same,reduction in number of dengue virus foci formed,[5]; [7],78.3%
same,IC50,"[5]; Dengue virus, DENV2, Vero",6.46 µg/mL
